Measurements reported in US11147883B2, “Targeted delivery of drugs, therapeutic nucleic acids and functional nucleic acids to mammalian cells via intact killed bacterial cells” (EnGeneIC Molecular Delivery Pty Ltd, priority 2006, dated 2021).

System: human breast cancer cells MDA-MB-468 xenograft
Test: Human breast cancer MDA-MB-468 xenograft in nude mice, i.v. treatment, tumor volume
Type: in vivo, Balb/c nu/nu mice
Details: i.v. doses on days 21, 28 and 34, 1×10^8 bacteria/dose or free Doxorubicin 7 mg/kg
Method: An anti-EGFR monoclonal antibody was selected because the xenografted cells were human breast cancer cells MDA-MB-468 that are known to overexpress the EGF receptor on the cell surface.
Human breast adenocarcinoma cells (MDA-MB-468, ATCC; human mammary epithelial cells; non-phagocytic) were grown in tissue culture to full confluency in T-75 flasks in RPMI 1640 medium supplemented with 5% Bovine Calf Serum (GIBCO-BRL Life Technologies, Invitrogen Corporation, Carlsbad, Calif., USA) and glutamine (Invitrogen) in a humidified atmosphere of 95% air and 5% CO2 at 37° C. 1×10^6 cells in 50 uL serum-free media together with 50 uL growth factor reduced matrigel (BD Biosciences, Franklin Lakes, N.J., USA) were injected subcutaneously between the shoulder blades of each mouse using a 23-gauge needle. The tumors were measured twice a week using an electronic digital caliper (Mitutoyo, Japan, precision to 0.001) and mean tumor volume was calculated using the formula, length (mm)×width^2 (mm)×0.5=volume (mm^3). 16 days post-implantation, the tumors reached volumes between 40 mm^3 and 70 mm^3, and mice were randomized to four different groups of five per group.
The experiment was designed as follows. Group 1 (control) received an i.v. dose of 100 μl of sterile physiological saline. Group 2 (control) received an i.v. dose of free Doxorubicin (7 mg/kg of mouse body weight). […]

`COc1cccc2c1C(=O)c1c(O)c3c(c(O)c1C2=O)C[C@@](O)(C(=O)CO)C[C@@H]3O[C@H]1C[C@H](N)[C@H](O)[C@H](C)O1` [free doxorubicin, Doxorubicin] was tested, and the “anti-tumor effect (tumor volume, FIG. 1)” value was “no anti-tumor effects”.
